Results as given in patent US10125157B2, “Derivatives of oxazaphosphorines that are pre-activated, use and method of preparation” (priority 2010, dated 2018).
Like-named read-outs stand apart in the source and are kept apart here.

Tests used:
[1] = Chemical stability of the 4-methoxy analogue; type: physicochemical; conditions: releases isophosphoramide mustard rapidly
[2] = compared with the active metabolite of IFO; cited from earlier work
M109 = assay: In vitro cytotoxicity, MTS cell viability test, 72 h; type: cell-based, mouse; conditions: for cytotoxic activity (in words): M109 cell line; for IC50: Mus musculus
Method: (§1) The cells were seeded in 96-well plates (TPP).
(§2) J. Pharm, 1989, 55, R1-R4.
(§3) The results are expressed as percentage of untreated cells. […] IC50 values were thus calculated for each line. Ifosfamide and squalenol were used as controls.

A549 = assay: as above; type: cell-based; conditions: Homo sapiens
Method: as §1, §2, §3

B16F10 = assay: as above; type: cell-based; conditions: Mus musculus
Method: as §1, §2, §3

KB 3.1 = assay: as above; type: cell-based; conditions: Homo sapiens
Method: as §1, §2, §3

MCF-7 MDR = assay: as above; type: cell-based; conditions: Homo sapiens
Method: as §1, §2, §3

MCF-7 = assay: as above; type: cell-based; conditions: Homo sapiens
Method: as §1, §2, §3

MiaPaCa-2 = assay: as above; type: cell-based; conditions: Homo sapiens
Method: as §1, §2, §3

SK-N-MC (Ewing) = assay: as above; type: cell-based; conditions: for IC50: Homo sapiens; for cytotoxic activity (in words): SK-N-MC (Ewing) cells
Method: as §1, §2, §3

IGR-OV1 (Ovary) = assay: as above; type: cell-based, human; conditions: for IC50: Homo sapiens; for cytotoxic activity (in words): IGR-OV1 (Ovary) cells
Method: as §1, §2, §3

UW 479 (Glioma) = assay: as above; type: cell-based, human; conditions: for IC50: Homo sapiens; for cytotoxic activity (in words): UW 479 (Glioma) cells
Method: as §1, §2, §3

several cell lines = assay: In vitro cytotoxicity over the panel of cell lines (MTS); conditions: all cell lines tested, concentrations between 0.1 and 100 μM
Description: Cytotoxicity of SQ-IFO and SQ-thio-IFO nanoparticles was studied in several cell lines:
• A549: human alveolar basal epithelial cell adenocarcinoma • MCF-7: human breast carcinoma • MCF-7 MDR: multidrug resistant human breast carcinoma • B16F10: mouse melanoma • KB 3.1: human epidermoid carcinoma • M109: mouse lung tumor cells • MiaPaCa-2: human pancreatic carcinoma • UW-479: human pediatric glioma • IGR OV1: human ovarian cancer • SK-N-MC: neuroblastoma, reclassified as Ewing (expression of EWS/Flip-1 oncogene)
The cell lines were maintained in DMEM or RPMI medium supplemented with 10% fetal calf serum and 1% antibiotics (100 U/mL penicillin and 100 μg/mL streptomycin) in an incubator at 37° C. in a humid 5% carbon dioxide atmosphere.
The cells were seeded in 96-well plates (TPP). Seeding was optimized for each line for an incubation time of 72 hours.
A549, MCF-7, B16F10, M109, MiaPaCa-2 cells were seeded at 5·10^3 cells/well. […] cells were seeded at 2·10^3 cells/well, IGR-OV1 cells at 10^4 cells/well and UW479 and SK-N-MC cells at 5·10^4 cells/well.
The compounds SQ-IFO and SQ-thio-IFO were synthesized according to the protocol described above. For each compound, an aqueous suspension of nanoparticles was prepared using the technique described by Fessi, Int. J. Pharm, 1989, 55, R1-R4.
For each compound, different concentrations between 0.1 and 100 μM were tested by serial dilution of a 2 mg/mL stock solution for SQ-IFO and a 10 mg/mL stock solution for SQ-thio-IFO in culture medium.
After 72 hours of incubation, cell viability was determined by observing the reduction of MTS reagent to formazan (CellTiter 96 AQueous One Solution kit, Promega). 20 μL of a 5 mg/mL solution of MTS in PBS were added per well. The incubation time of the MTS was optimized for each cell line; the absorbance at 490 nm was then read using a plate reader (EL808, Biotek).
The results are expressed as percentage of untreated cells. The data were treated with Prism 4 software (Graph Pad Software, San Diego). IC50 values were thus calculated for each line. Ifosfamide and squalenol were used as controls.

[3] = system: RD human pediatric rhabdomyosarcoma model; assay: In vivo efficacy, human rhabdomyosarcoma xenografted in nude mice; conditions: RD xenograft, treated when tumor volume >80 mm^3, preliminary results
Method: In vivo cytotoxic efficacy was evaluated first on a model of human rhabdomyosarcoma xenografted in nude mice. The model used is the RD human pediatric rhabdomyosarcoma model. The cells were first amplified in culture and counted. 10·10^6 cells were injected subcutaneously in both flanks of each mouse. After graft uptake, when tumor volume reached >80 mm^3, the mice were treated with IFO-SQ or placebo.

[4] = Nanoparticle size in aqueous medium; type: physicochemical; conditions: for average size of nanoparticles: aqueous suspension prepared by the technique of Fessi, spherical; for size of nanoparticles: self-assembly in an aqueous medium
Description: For example, the most recent and most promising application concerns the attachment of a squalene residue by this method by adding squalenol or squalene-thiol in the presence of BF3ET2O on the phosphoryl-iminium produced from 4-methoxy-MFI (Schemes 7 and 8). The compounds formed, SQ-4-O-MFI and SQ-4-S-MFI, have two interesting properties. The first is that they are pre-activated forms of MFI due to oxidation in position 4 that can release, in a slightly acidic aqueous medium, the alkylating mustard directly without metabolic activation. The second is that they are capable of self-assembly in an aqueous medium in the form of nanoparticles of a size of about 160 nm.
as §2

Compound	cytotoxic activity (in words) (M109)	IC50 (M109; M109, 72 h)	IC50 (A549; A549, 72 h)	IC50 (B16F10; B16-F10, 72 h)	IC50 (KB 3.1; KB 3-1, 72 h)	IC50 (MCF-7 MDR; MCF7, 72 h)	IC50 (MCF-7; MCF7, 72 h)	IC50 (MiaPaCa-2; MIA PaCa-2, 72 h)	IC50 (SK-N-MC (Ewing); SK-N-MC, 72 h)	cytotoxic activity (in words) (SK-N-MC (Ewing))	IC50 (IGR-OV1 (Ovary); IGROV-1, 72 h)	cytotoxic activity (in words) (IGR-OV1 (Ovary))	IC50 (UW 479 (Glioma); 72 h)	cytotoxic activity (in words) (UW 479 (Glioma))	in vitro cytotoxicity (in words) (several cell lines)	average size of nanoparticles [4]	size of nanoparticles [4]	further results
COC1CCOP(=O)(NCCCl)N1CCCl (stereo not shown) [4-MeO-IFO, 4-methoxy-ifosfamide]																		chemical stability [1]: quite unstable; cytotoxic potency [2]: equivalent to that of the active metabolite of IFO
CC(C)=CCC/C(C)=C/CC/C(C)=C/CC/C=C(\C)CC/C=C(\C)CCCOC1CCOP(=O)(NCCCl)N1CCCl (stereo not shown) [Ifosfamide SQ]	not observed	> 100 µM	32.5 µM	73 µM	50 µM	78.8 µM	43.6 µM	32.5 µM	> 100 µM	not observed	> 100 µM	not observed	> 100 µM	not observed	high in vitro cytotoxicity	182 nm	about 160 nm	tumor volume compared to mice treated with placebo [3]: significant decrease in tumor volume
O=P1(NCCCl)OCCCN1CCCl (stereo not shown) [Ifosfamide, reference compound]															did not exhibit significant cytotoxicity			IC50 (M109; M109, 72 h incubation, nanoparticle suspension, MTS, read-out: IC50): > 100 µM; IC50 (A549; A549, 72 h incubation, nanoparticle suspension, MTS, read-out: IC50): > 100 µM; IC50 (B16F10; B16-F10, B16F10, 72 h incubation, nanoparticle suspension, MTS, read-out: IC50): > 100 µM; IC50 (KB 3.1; KB 3-1, KB 3.1, 72 h incubation, nanoparticle suspension, MTS, read-out: IC50): > 100 µM; IC50 (MCF-7 MDR; MCF7, MCF-7 MDR, 72 h incubation, nanoparticle suspension, MTS, read-out: IC50): > 100 µM; IC50 (MCF-7; MCF7, MCF-7, 72 h incubation, nanoparticle suspension, MTS, read-out: IC50): > 100 µM; IC50 (MiaPaCa-2; MIA PaCa-2, MiaPaCa-2, 72 h incubation, nanoparticle suspension, MTS, read-out: IC50): > 100 µM; IC50 (SK-N-MC (Ewing); SK-N-MC (Ewing), 72 h incubation, nanoparticle suspension, MTS, read-out: IC50): > 100 µM; IC50 (IGR-OV1 (Ovary); IGROV-1, IGR-OV1 (Ovary), 72 h incubation, nanoparticle suspension, MTS, read-out: IC50): > 100 µM; IC50 (UW 479 (Glioma); UW 479 (Glioma), 72 h incubation, nanoparticle suspension, MTS, read-out: IC50): > 100 µM
CC(C)=CCC/C(C)=C/CC/C(C)=C/CC/C=C(\C)CC/C=C(\C)CCC(=O)NCCSC1CCOP(=O)(NCCCl)N1CCCl (stereo not shown) [Ifosfamide-thio-SQ, (2-chloro-ethyl)-[3-(2-chloro-ethyl)-2-oxo-4-mercaptoethylamidosqualen-[1,3,2]oxazaphosphinan-2-yl]-amine]	high cytotoxic activity	9.2 µM	5.3 µM	16.9 µM	2.96 µM	80 µM	10.9 µM	4.4 µM	19 µM	high cytotoxic activity	81 µM	high cytotoxic activity	65 µM	high cytotoxic activity	high in vitro cytotoxicity	182 nm	about 160 nm	
tris-nor-squalenol [reference compound]															did not exhibit significant cytotoxicity			
